{
  "source": "paper PMC11546339",
  "about": "“Conformational Plasticity Enhances the Brain Penetration of a Metabolically Stable, Dual-Functional Opioid-Peptide CycloAnt” (International Journal of Molecular Sciences, 2024)",
  "key": {"[1]": {"system": "physical dependence in mice", "design": "method as in PMID 38005269", "conditions": "chronic administration, naloxone-precipitated withdrawal; cited from earlier work"}, "[2]": {"test": "Pharmacokinetic study in mice (plasma and brain)", "assay_type": "in vivo", "conditions": "male, C57BL/6, mouse, ip, 3 mg/kg i.p.", "method": "To evaluate the amount of CycloAnt in mouse brain, we performed a pharmacokinetic experiment in mice. Mice were given CycloAnt at 3 mg/kg i.p.; blood was collected at 0, 15, 30, and 60 min post-injection. Immediately after the blood was collected, the mouse was intracardially perfused through the left ventricle with 20 mL PBS. The whole brain was isolated and homogenized. The blood and brain samples were processed by protein precipitation and centrifugation. The supernatants of the blood and brain samples were collected and analyzed by LC-MS/MS.\nPharmacokinetic study. Standard curve. Following euthanasia, mouse blood was collected in a heparin anticoagulation tube and the whole brain was isolated. For determination of the standard curve in mouse blood, 300 μL of blood was spiked with 0, 10, 100, and 1000 ng of CycloAnt, respectively, followed by adding 600 μL of ice-cold acetonitrile containing the internal standard (IS, Tyr-[D-Lys-Phe-Tyr-Gly]) at 200 ng/mL. The blood samples were thoroughly mixed and centrifuged at 10,000 rpm at 4 °C for 10 min. An aliquot of 600 μL of supernatant from each sample was collected and dried under vacuum, followed by reconstitution of the dried blood sample in 100 μL 20% acetonitrile. The reconstituted sample was centrifuged at 13,000 rpm, 4 °C for 5 min to remove the lipid content. The supernatant was collected for LC-MS/MS analysis. For mouse brain, the brain was homogenized with 250 μL of PBS at 0 °C, followed by adding 1 mL of ice-cold acetonitrile containing the IS. The brain sample was then spiked with 0, 10, 100, and 1000 ng of CycloAnt, respectively, and thoroughly mixed and centrifuged at 10,000 rpm, 4 °C for 10 min. An aliquot of 1000 μL of supernatant was collected and dried under vacuum, followed by adding 100 μL 20% acetonitrile to reconstitute the dried brain sample. The reconstituted sample was mixed and centrifugating at 13,000 rpm, 4 °C for 5 min to remove the lipid content. The supernatant was collected and analyzed by LC-MS/MS.\nThe peak areas of CycloAnt and IS were recorded; the relative measured concentration of CycloAnt was calculated using the ratio of CycloAnt peak area vs. IS peak area. A standard concentration curve (Figure S8) was then generated for CycloAnt in the matrix of blood and brain, respectively.\nPharmacokinetics. Eight-week-old male C57BL/6 mice (Jackson Laboratories, Bar Harbor, ME, USA) were used for pharmacokinetic studies. CycloAnt was given to mice (n = 2) i.p. at a dose of 3 mg/kg. At 15, 30, and 60 min post-administration, mouse blood was collected in a heparin anticoagulation tube. After blood collection, the mouse was intracardially perfused through the left ventricle with 20 mL PBS, followed by isolation of the whole brain. To process the blood sample, 300 μL blood was mixed with 600 μL of ice-cold acetonitrile containing the IS at 200 ng/mL, followed by centrifugation at 10,000 rpm, 4 °C for 10 min. To process the brain sample, 250 μL of ice-cold PBS was added to the isolated brain and homogenized at 0 °C, followed by mixing with 1 mL of ice-cold acetonitrile containing the IS. The brain sample was then centrifuged at 10,000 rpm, 4 °C for 10 min. The supernatants were collected from the blood sample (600 μL) and the brain sample (1 mL), respectively, and dried under vacuum. The blood and brain samples were reconstituted in 100 μL of 20% acetonitrile. The samples were then centrifuged at 13,000 rpm, 4 °C for 5 min to remove the lipid content. The supernatants were collected from the blood and brain samples and analyzed by LC-MS/MS."}, "respiration in mice": {"system": "respiration in mice", "design": "method as in PMID 38005269", "conditions": "high doses up to 15 times the ED50, mice; cited from earlier work"}},
  "note": "Read-outs that look alike come from different tables or passages of the source. Where a SMILES comes first, the peptide text is derived from it. Bridges are numbered along the chain shown (N, C = ends). [ ]: non-standard residue; d: D form. 2Abz = Nc1ccccc1C(=O)O; Dap = NC[C@H](N)C(=O)O",
  "data": [
    {"smiles": "C[C@@H](O)[C@@H]1NC(=O)[C@H](CNC(=O)c2ccccc2N)NC(=O)[C@H](NC(=O)[C@@H](N)Cc2ccc(O)cc2)CCCCNC(=O)CNC1=O", "note": "[CycloAnt] (H-Y[dK][Dap](2Abz)TG; lactam 2-C)", "values": [
      {"measurement": "physical dependence", "setting": "[1]", "value": "significantly reduced physical dependence"},
      {"measurement": "Tmax", "setting": "[2]; brain, read-out: time of maximum concentration in brain (converted)", "value": 15, "unit": "min"},
      {"measurement": "Cmax", "setting": "[2]; assuming density of brain tissue 1 g/mL, read-out: maximum concentration in brain (Cmax,br)", "value": 70, "unit": "nM"},
      {"measurement": "Cmax", "setting": "[2]; perfused brain, read-out: maximum concentration in brain (Cmax,br)", "value": 46, "unit": "ng/g"},
      {"measurement": "AUC", "setting": "[2]; plasma, 0-60 min, read-out: AUCbld (plasma) (converted)", "value": 173, "unit": "ng·h/mL"},
      {"measurement": "Cmax", "setting": "[2]; plasma, read-out: maximum concentration in mouse plasma (Cmax,pl)", "value": 411, "unit": "ng/mL"},
      {"measurement": "Tmax", "setting": "[2]; whole blood, read-out: time of maximum concentration in blood (converted)", "value": 15, "unit": "min"},
      {"measurement": "respiratory depression", "setting": "respiration in mice", "value": "does not produce any respiratory depression"}
    ]}
  ]
}
